# Measured values reported in patent publication US7776538B2, “Method for diagnosing methamphetamine dependence” (National University Corporation Nagoya University, priority 2005, dated 2010).
# Experiments:
# Gene 1 mRNA = Gene 1 mRNA expression in brain tissue by RT-PCR; assay type: in vivo, mice; settings: for Gene 1 expression amount in the nucleus accumbens induced by methamphetamine: methamphetamine 2 mg/kg s.c. six days, R(+)-SCH23390 0.1 mg/kg i.p. or raclopride 2 mg/kg i.p. 30 minutes before
# Procedure: Antisense nucleotide of Gene 1 was continuously infused into the mouse cerebral ventricle by using a mini osmotic pump and methamphetamine was administered to the animals every day.
# A mouse was fed with 6% ethanol or water (control) for 12 days, and then was subjected to decapitation. The amount of Gene 1 mRNA in the nucleus accumbens was measured by a RT-PCR method.
# mice = experiment: Locomotor activity test; assay type: in vivo; settings: methamphetamine administered to mice every day (FIG. 1: 2 mg/kg, s.c., six days), hydrochloride
# Procedure: In the test, ICR male mice (Japan SLC, Hamamatsu) that were 8-week old when the test was started. The mice were bred under conditions of light and dark cycle of 12 hours (light up: A.M 8:00), room temperature 23±1° C., and humidity 50±5%. The mice were freely fed with food (CE2: CLEA Japan, Tokyo) and water. Note here that this research program was approved by Animal Research Committee, Nagoya University School of Medicine and carried out in accordance with Guideline of Animal Research of Nagoya University School of Medicine and Principles of Laboratory Animal Care (National Institutes of Health Publication 85-23, 1985).
# In the test, an acrylic cage (28 cm in length, 17 cm in width and 13 cm in height) that is the same kind as the home case was used. On the floor, a small amount of breeding chip was placed. […]
# On days 1 to 3, mice were placed in a measurement cage for two hours so that the mice became accustomed to the measurement environment. […] Right after the administration, the total locomotor activity for two hours was measured.
# Each of the antisense nucleotide of Gene 1 and 2 was infused into the mice cerebral ventricle continuously by using a mini osmotic pump and methamphetamine was administered to the animals every day. The locomotor activity on the first, third and fifth days was measured. […] The locomotor activity was measured for two hours. […]
# [1] = target: T1, human dopamine transporter (Homo sapiens, UniProt Q01959); experiment: Fluorescence immunostaining of intracellular movement of dopamine transporter in PC12 cell; settings: before and after methamphetamine was acted
# T1 construct: expressed in transfected cells; host or cells: PC12 cells
# T1 sequence (Q01959 whole entry): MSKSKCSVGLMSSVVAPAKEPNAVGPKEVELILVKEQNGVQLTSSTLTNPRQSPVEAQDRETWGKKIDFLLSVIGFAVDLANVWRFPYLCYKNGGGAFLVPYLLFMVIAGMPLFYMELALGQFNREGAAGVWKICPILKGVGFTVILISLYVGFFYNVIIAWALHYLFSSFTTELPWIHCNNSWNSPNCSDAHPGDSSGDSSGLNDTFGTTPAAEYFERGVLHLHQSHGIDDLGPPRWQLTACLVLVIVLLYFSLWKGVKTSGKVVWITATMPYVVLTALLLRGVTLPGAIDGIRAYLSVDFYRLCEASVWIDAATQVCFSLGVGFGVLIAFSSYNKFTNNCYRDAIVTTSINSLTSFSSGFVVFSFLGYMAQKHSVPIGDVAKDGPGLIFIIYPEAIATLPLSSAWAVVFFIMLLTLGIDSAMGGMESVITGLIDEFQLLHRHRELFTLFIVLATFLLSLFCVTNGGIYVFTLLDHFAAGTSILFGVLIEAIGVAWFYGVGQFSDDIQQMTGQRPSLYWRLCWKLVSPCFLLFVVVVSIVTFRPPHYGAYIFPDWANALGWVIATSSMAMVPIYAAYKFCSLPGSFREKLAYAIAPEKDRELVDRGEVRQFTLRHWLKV
# Procedure: In the PC12 cell, the human dopamine transporter was forcedly expressed and fluorescence immunostaining of a human dopamine transporter was carried out before and after methamphetamine was acted.
# Genes 1 to 3 mRNA = experiment: Expression of Genes 1 to 3 mRNA by RT-PCR / real time RT-PCR after methamphetamine; assay type: in vivo, mice
# Description: Furthermore, when the increase of the expression amount was examined by a real time RT-PCR method, the expression amount was increased in the methamphetamine-administered cortex of frontal lobe, nucleus accumbens and striatum, respectively (FIGS. 10 to 12).
# [2] = tested on: mouse (C57black6) nucleus accumbens; experiment: cDNA subtraction of nucleus accumbens mRNA after methamphetamine; assay type: in vivo; settings: methamphetamine 10 consecutive days, five genes incl. Gene 1, Gene 2, Gene 3 (Piccolo)
# Procedure: By using RNeasy mini kit (QIAGEN), mRNA was prepared by the following procedure. Mouse brain was taken out and the tissue was divided so as to be 30 mg or less. The brain tissue was dissolved in a solution containing a protein denaturizing agent and centrifuged with a spin column. Ethanol precipitation was repeated. Finally, mRNA was purified with silica gel.
# The cDNA subtraction was carried out by using CLONTECH PCR-Select™ cDNA Subtraction Kit (CLONTECH) according to the attached instruction manual.
# Methamphetamine-administered mice show hyperactivity, and when methamphetamine is administered to mice every day, the degree of hyperactivity is increased. This can be thought to be a mental disorder accompanying drug dependence (FIG. 1). Then, mRNA was taken out from the mouse (C57black6) nucleus accumbens to which methamphetamine had been administered for 10 consecutive days. Based on this, cDNA subtraction (CLONTECH) was carried out. In mice to which methamphetamine had been administered, a gene in which mRNA expression amount increased by 20 times or more than that of a control group was searched. As a result, five genes satisfy the requirement (FIG. 2). In the genes, three genes except for CREB3 and Odz4 were used for the later research. For convenience of description, each gene is referred to as Gene 1, Gene 2 and Gene 3 (Piccolo).
smiles,measurement,setting,value
CN1CCc2cc(Cl)c(O)cc2[C@@H](c2ccccc2)C1 [R(+)-SCH23390],Gene 1 expression amount in the nucleus accumbens induced by methamphetamine,Gene 1 mRNA,significant difference was observed
CCO [ethanol],Gene 1 mRNA amount in the nucleus accumbens,Gene 1 mRNA; 6% ethanol fed for 12 days vs water,no significant correlation
"CN[C@@H](C)Cc1ccccc1.Cl [methamphetamine, methamphetamine hydrochloride]",locomotor activity,mice,enhanced
same,locomotor activity,mice; listed as Methamphetamine,hyperactivity
same,intracellular movement of the human dopamine transporter,[1],intracellular movement of the human dopamine transporter was observed
same,mRNA of Genes 1 to 3 (RT-PCR),"Genes 1 to 3 mRNA; methamphetamine administered group compared with control group, all primer combinations",increase of mRNA was observed
same,expression amount of Genes 1 to 3 (real time RT-PCR),"Genes 1 to 3 mRNA; methamphetamine-administered cortex of frontal lobe, nucleus accumbens and striatum",increased
same,mRNA expression amount increase over control group,[2],≥ 20 times
CN1CCCC1c1cccnc1 (centres unmarked) [nicotine],Gene 1 mRNA amount in the nucleus accumbens,Gene 1 mRNA; nicotine 0.05-1.0 mg/kg s.c. 12 days,correlation between the administration of nicotine and the expression amount of Gene 1 was observed
c1ccc(C2(N3CCCCC3)CCCCC2)cc1 [phencyclidine],Gene 1 mRNA amount in the cortex of frontal lobe,Gene 1 mRNA; phencyclidine 10 mg/kg s.c. 14 days,no significant correlation
CCN1CCC[C@H]1CNC(=O)c1c(O)c(Cl)cc(Cl)c1OC [raclopride],Gene 1 expression amount in the nucleus accumbens induced by methamphetamine,Gene 1 mRNA,significant difference was observed
